For experiment [1], the system named is STAT3-degrader-E3 ligase ternary complex. Briefly: AlphaLISA assays, ternary complex formation and STAT3 ubiquitination. The conditions noted are these: FIG. 2. Type of experiment: biochemical. (Alpha assays give light when donor and acceptor beads are brought close together.)
The next experiment deals with ternary complex. Kind of experiment: AlphaLISA assay of ternary complex formation (FIG. 2A). Format: binding.
The next experiment deals with E3 ligase. Briefly: Fluorescence polarization assay, E3 ligase binding. The settings on record: FIG. 1. A general note: In fluorescence polarisation assays a small probe gives low polarisation when free and higher when bound to something large.
In experiment [2] the target is T1, STAT3 (Homo sapiens, UniProt P40763). Briefly: Fluorescence polarization assay, STAT3 binding. The conditions noted are these: FIG. 1.
Experiment [3] addresses T1, STAT3. Kind of experiment: Quantitation of STAT3 degradation in A549 cells by Western blot. Format: cell-based. On the set-up: expressed in transfected cells; host or cells: A549. The conditions noted are these: read-out: A549 DC50, 24 hours, tested up to 30 μM or 10 μM. In short, it runs like this: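 A549 cells treated 24 h at 37° C with compound at 30, 10, 3, 1, 0.3 μM or DMSO; RIPA lysates analysed by SDS-PAGE/Western blot for total STAT3, β-actin as loading control, LI-COR fluorescence read-out. DC50 derived by sigmoidal fit of dose-dependent degradation.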
In general terms: Immunoblotting shows a protein as a band on a membrane.

Experiment [4] concerns the target T1, STAT3. Kind of experiment: STAT3 ubiquitination in A549 lysates (FIG. 2B). Set-up: expressed in transfected cells; host or cells: A549. Type of experiment: cell-based.
Experiment [5] has as its target T2, mutant STAT3 (STAT D661Y) (Homo sapiens, UniProt P40763, D661Y).
T2 construct: endogenous in cells; host or cells: HDLM-2
Kind of experiment: degradation of mutant STAT3 in HDLM-2 cell lines, dose response. Type of experiment: cell-based. The settings on record: dose response curve.

For a further experiment, the system named is A3/KAW cells. Briefly: CellTiter-Glo cell viability, A3/KAW. Format: cell-based. The conditions noted are these: DLBCL.
The target of another experiment is mutant STAT3 (Homo sapiens, UniProt P40763, D661Y). Briefly: STAT3 MSD assay, mutant STAT3 cell lines. The settings on record: read-out: DC50, mutant STAT3; mutant STAT3 heme cell lines, FIG. 9. Format: cell-based. The method, then: 100 nl of compounds were added into the intermediate plate with Echo (Labcyte 550) from source plate containing a 3-fold serial dilution from top concentration of 1 mM. Cells were seeded into 96-well plates (4×10^4 cells/well/100 ul media), mixed well, and incubated for 24 hours. The media was aspirated from the cultures and 60 μL pre-chilled PIPA lysis buffer (Boston BioProducts BP-115D) with protease/phosphatase inhibitor (Roche 05892791001/Roche 04906837001) was added into the well to lyze the cells for 20 minutes at 4° C. The MSD plate (L15XA) was coated with 2 ug/ml capture antibody (ab119352) in PBS and incubated at 4° C. overnight. The next day, the plate was washed three times with TBST (CST #99975), 150 μL/well. MSD plates were blocked with 150 μL blocking buffer per well and shaken for 1 hr at RT and 600 rpm. The blocking buffer was 3% Blocker A (MSD, R93BA-4) in TBST. The MSD plate was washed three times with 150 μL/well of TBST and 70 μL cell lysate was added into the well and shaken for 1 hour at RT and 600 rpm. […] The MSD plate washed three times with 150 μL/well of TBST and added 150 μL/well of 2×MSD reading buffer diluted from 4× (MSD, R92TC-2) with water. Lastly the MSD instrument was read.

Here are results for two compounds from patent US12077555B2, “STAT degraders and uses thereof” (Kymera Therapeutics, Inc., priority 2019, dated 2024).

As usually defined, the IC50 is the concentration that gives 50% inhibition.

T1 sequence (P40763 whole entry): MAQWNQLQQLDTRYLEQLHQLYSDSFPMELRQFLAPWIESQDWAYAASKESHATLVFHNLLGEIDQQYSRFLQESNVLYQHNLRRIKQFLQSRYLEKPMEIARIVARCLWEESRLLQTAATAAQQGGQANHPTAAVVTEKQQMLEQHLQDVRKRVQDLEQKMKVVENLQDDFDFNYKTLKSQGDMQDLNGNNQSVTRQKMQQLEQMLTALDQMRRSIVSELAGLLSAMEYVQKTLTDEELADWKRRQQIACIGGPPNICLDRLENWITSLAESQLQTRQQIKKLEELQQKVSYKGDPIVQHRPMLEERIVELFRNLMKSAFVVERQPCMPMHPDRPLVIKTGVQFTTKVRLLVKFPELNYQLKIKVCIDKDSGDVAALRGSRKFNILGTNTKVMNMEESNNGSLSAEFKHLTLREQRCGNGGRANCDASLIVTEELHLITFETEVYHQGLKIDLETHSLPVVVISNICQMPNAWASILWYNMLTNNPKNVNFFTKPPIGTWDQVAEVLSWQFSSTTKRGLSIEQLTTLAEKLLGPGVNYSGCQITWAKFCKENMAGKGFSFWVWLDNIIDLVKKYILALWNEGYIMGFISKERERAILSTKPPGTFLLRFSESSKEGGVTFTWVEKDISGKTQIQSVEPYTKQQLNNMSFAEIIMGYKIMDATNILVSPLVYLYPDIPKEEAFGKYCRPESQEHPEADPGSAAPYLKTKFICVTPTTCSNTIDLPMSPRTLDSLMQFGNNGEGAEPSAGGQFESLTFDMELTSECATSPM
Chain of mutant STAT3 (P40763 2-770 D661Y): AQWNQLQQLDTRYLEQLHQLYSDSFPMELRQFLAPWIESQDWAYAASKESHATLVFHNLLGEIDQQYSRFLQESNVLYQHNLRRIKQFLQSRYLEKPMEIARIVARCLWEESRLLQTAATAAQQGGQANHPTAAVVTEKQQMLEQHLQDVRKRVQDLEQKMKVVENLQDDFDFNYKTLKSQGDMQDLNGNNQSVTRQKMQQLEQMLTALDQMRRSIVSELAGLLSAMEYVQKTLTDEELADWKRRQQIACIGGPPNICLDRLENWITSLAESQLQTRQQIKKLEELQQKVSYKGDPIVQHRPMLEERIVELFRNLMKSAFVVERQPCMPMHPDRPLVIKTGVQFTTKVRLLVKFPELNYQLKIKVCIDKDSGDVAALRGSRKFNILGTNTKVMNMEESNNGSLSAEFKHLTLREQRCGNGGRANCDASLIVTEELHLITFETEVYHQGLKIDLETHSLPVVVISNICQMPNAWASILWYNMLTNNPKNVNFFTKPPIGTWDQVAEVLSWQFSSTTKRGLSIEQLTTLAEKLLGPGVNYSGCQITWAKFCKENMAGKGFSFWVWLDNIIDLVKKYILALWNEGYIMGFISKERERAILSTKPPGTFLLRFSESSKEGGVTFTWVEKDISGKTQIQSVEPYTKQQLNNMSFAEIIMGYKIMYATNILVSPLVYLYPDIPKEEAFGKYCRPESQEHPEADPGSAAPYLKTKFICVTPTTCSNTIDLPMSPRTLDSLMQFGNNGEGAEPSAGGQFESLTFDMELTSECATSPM
T2 sequence (P40763 whole entry D661Y): as the sequence (P40763 whole entry) above, with D661Y counted along it

With `C/C(=C\C(=O)N[C@H]1CCc2cccc3c2N(C1=O)[C@H](C(=O)N[C@@H](CCC(N)=O)[C@@H](C)OCc1ccc(CCCCC(=O)N[C@H](C(=O)N2C[C@H](O)C[C@H]2C(=O)NCc2ccc(-c4scnc4C)cc2)C(C)(C)C)cc1)C3)c1ccc(C(F)(F)P(=O)(O)O)cc1` [Compound I-1, [4-[(1E)-1-[[(2S,11S)-2-[[(3S,4R)-1-carbamoyl-4-[[4-(4-[[(2S)-1-[(2S,4R)-4-hydroxy-2-([[4-(4-methyl-1,3-thiazol-5-yl)phenyl]methyl]carbamoyl)pyrrolidin-1-yl]-3,3-dimethyl-1-oxobutan-2-yl]carbamoyl]butyl)phenyl]methoxy]pentan-3-yl]carbamoyl]-12-oxo-1-azatricyclo[6.4.1.0^[4,13]]trideca-4(13),5,7-trien-11-yl]carbamoyl]prop-1-en-2-yl]phenyl]difluoromethylphosphonic acid], in experiment [1], the STAT3 ubiquitination result is “promotes” and the “formation of the STAT3-degrader-E3 ligase ternary complex” value is listed as “promotes the formation of the STAT3-degrader-E3 ligase ternary complex”. In the experiment with ternary complex, the ternary complex formation entry was “efficient ternary complex formation”. The “binding to E3 ligase” value with E3 ligase is recorded as “binds”. Moreover, the “binding to STAT3” value on STAT3 [2] is reported as “binds”. The DC50 on STAT3 [3] was below 30000 nM. Also, the STAT3 ubiquitination entry on STAT3 [4] was “STAT3 ubiquitination”.

As for `NC(=O)CC[C@H](NC(=O)[C@@H]1CC[C@@H]2CCN(C(=O)CCCCCC#Cc3cccc4c3CN(C3CCC(=O)NC3=O)C4=O)C[C@H](NC(=O)c3cc4cc(C(=O)P(=O)(O)O)ccc4[nH]3)C(=O)N21)C(=O)NC(c1ccccc1)c1ccccc1` (stereo partly drawn) [Compound I-111, diammonium 2-[[(5S,8S,10aR)-8-[[(1S)-3-carbamoyl-1-(diphenylmethylcarbamoyl)propyl]carbamoyl]-3-[8-[2-(2,6-dioxopiperidin-3-yl)-1-oxo-3H-isoindol-4-yl]oct-7-ynoyl]-6-oxo-octahydropyrrolo[1,2-a][1,5]diazocin-5-yl]carbamoyl]-1H-indole-5-carbonylphosphonate], the “degradation of mutant STAT3 (STAT D661Y)” value in experiment [5] is “degrading mutant STAT3”. In addition, the IC50 with A3/KAW cells (96 h, Day 4, read-out: CTG, IC50 μM, Day 4) is 1.9 µM. Moreover, the “CTG (% Max inh), Day 4” value in the experiment on A3/KAW cells is given as “(50-55) %”. Moreover, the DC50 is 68 nM at mutant STAT3 and below 30000 nM at STAT3 [3].
